Test results published in patent US9579358B2, “Compositions for binding to amyloid proteins” (LANCASTER UNIVERSITY BUSINESS ENTERPRISES LIMITED, priority 2011, dated 2017).
pKd: −log10 of the molar value. Like-named read-outs stand apart in the source and are kept apart here.

Key:
[1] = biological target: T1, Aβ42 (Homo sapiens, UniProt P05067); experiment: Thioflavin T (ThT) assay for Aβ fibrils; type: biochemical; details: Table 3, 1:2 molar ratio to Aβ
T1 construct: Recombinant Aβ42, Ultrapure, was purchased from rPeptide, Bogart, Ga., USA; purchased rPeptide, Bogart, Ga., USA
T1 sequence (P05067 672-713 limits assumed): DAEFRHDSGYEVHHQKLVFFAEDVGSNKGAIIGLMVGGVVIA
Experimental: This method was the same as that published previously. Briefly, 60 μl samples of solutions containing Aβ42 (25 μM), ThT (15 μM) and between 0 and 125 μM RI-OR2 or RI-OR2-TAT, in 10 mM phosphate buffered saline (PBS), pH 7.4, were incubated in sealed, black, clear-bottomed 384-well plates (Corning). ThT fluorescence was monitored every 10 mins (λex=442 nm, λem=483 nm) for 48 h at 30° C. in a Biotek Synergy 2 plate reader.

[2] = biological target: immobilized Aβ1-42 monomers and fibrils (Homo sapiens, UniProt P05067); details: cited from earlier work
Sequence of immobilized Aβ1-42 monomers and fibrils (P05067 672-713 limits assumed): as above

Ac-rGffvlkGr-NH2 [RI-OR2, reference compound]
% of control ([1]; 48 hrs, Aβ alone = 100): 35% | RFU at 48 hours ([1]; Aβ 25 μM): 72265 RFU | pKd ([2]; previously reported value, read-out: Kd, binding to Aβ42 fibrils): 5.02 | pKd ([2]; published SPR data (28), read-out: binding affinity (Kd) for interaction with Aβ monomers and fibrils): 4.52 to 4.60
